Target: T7 RNA Polymerase (Escherichia phage T7, UniProt P00573)
Test: not given
Assay type: biochemical
Settings: 20 μL transcription system, Cap1 Analog 4 mM, 37° C. 2 to 3 hours
Description: • 1) A plasmid was linearized and the DNA template was purified. • 2) mRNA was synthesized in vitro with 51 types of capping structures of the present disclosure, or without any cap analogues. CleanCap®AG (3′OMe) (Trilink, N-7413) was applied as positive control group, uncapped mRNA was negative control group, and DNAase/RNase-Free water was a blank control group.
The system was incubated for 2 to 3 hours at 37° C. and digested by TURBO DNase for 15 min LiCl was used to precipitate mRNA for at least 30 min, or overnight, mRNA precipitates were then washed with 75% ethanol. After ethanol was quickly volatilized, mRNA was re-solubilized with RNase-Free water. • 3) The transcribed products were purified and the transcription yields were calculated.

Chain of T7 RNA Polymerase (P00573 whole entry): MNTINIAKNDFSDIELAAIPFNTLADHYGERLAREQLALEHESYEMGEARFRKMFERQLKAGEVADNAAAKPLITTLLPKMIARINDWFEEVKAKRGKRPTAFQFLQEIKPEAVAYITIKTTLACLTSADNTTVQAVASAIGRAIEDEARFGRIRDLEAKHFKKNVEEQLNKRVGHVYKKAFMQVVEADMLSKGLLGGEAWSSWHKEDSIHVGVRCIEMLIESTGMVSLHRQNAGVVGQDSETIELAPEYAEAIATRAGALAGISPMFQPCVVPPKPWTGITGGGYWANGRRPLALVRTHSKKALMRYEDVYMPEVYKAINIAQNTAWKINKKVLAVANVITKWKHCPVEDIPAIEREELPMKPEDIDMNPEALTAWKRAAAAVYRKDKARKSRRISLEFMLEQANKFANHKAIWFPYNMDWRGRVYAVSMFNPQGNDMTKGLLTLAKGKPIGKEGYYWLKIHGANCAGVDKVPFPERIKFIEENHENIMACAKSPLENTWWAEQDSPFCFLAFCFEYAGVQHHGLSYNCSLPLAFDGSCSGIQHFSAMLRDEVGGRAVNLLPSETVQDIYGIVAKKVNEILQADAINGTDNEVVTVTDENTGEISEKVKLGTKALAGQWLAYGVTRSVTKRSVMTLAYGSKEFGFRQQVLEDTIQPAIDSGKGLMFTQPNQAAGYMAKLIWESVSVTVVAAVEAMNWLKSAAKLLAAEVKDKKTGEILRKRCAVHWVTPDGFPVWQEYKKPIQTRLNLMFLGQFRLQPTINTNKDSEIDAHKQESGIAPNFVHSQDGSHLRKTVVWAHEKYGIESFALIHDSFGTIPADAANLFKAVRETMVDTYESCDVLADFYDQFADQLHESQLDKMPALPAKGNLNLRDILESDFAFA

| Compound | Final product mass obtained from the 20 μL of mRNA transcription system [µg] |
| --- | --- |
| CO[C@@H]1[C@H](OP(=O)([O-])OC[C@H]2O[C@@H](n3cnc4c(=O)[nH]c(N)nc43)[C@H](O)[C@@H]2O)[C@@H](COP(=O)(O)OP(=O)(O)OP(=O)(O)OC[C@H]2OC(n3c[n+](C)c4c(=O)[nH]c(N)nc43)[C@H](O)[C@@H]2CC(=O)N(C)C)O[C@H]1n1cnc2c(N)ncnc21 (stereo partly shown) [Compound 4] | 78 |
| CO[C@@H]1[C@H](OP(=O)([O-])OC[C@H]2O[C@@H](n3cnc4c(=O)[nH]c(N)nc43)[C@H](O)[C@@H]2O)[C@@H](COP(=O)(O)OP(=O)(O)OP(=O)(O)OC[C@H]2O[C@@H](n3c[n+](C)c4c(=O)[nH]c(N)nc43)[C@H](O)[C@@H]2CNC(C)=O)O[C@H]1n1cnc2c(N)ncnc21 [Compound 6] | 103 |
| CCCCC(=O)NC[C@H]1[C@@H](O)[C@H](n2c[n+](C)c3c(=O)[nH]c(N)nc32)O[C@@H]1COP(=O)(O)OP(=O)(O)OP(=O)(O)OC[C@H]1O[C@@H](n2cnc3c(N)ncnc32)[C@H](OC)[C@@H]1OP(=O)(O)OC[C@H]1O[C@@H](n2cnc3c(=O)[nH]c(N)nc32)[C@H](O)[C@@H]1O [Compound 305] | 92 |
| CO[C@@H]1[C@H](OP(=O)([O-])OC[C@H]2O[C@@H](n3cnc4c(=O)[nH]c(N)nc43)[C@H](O)[C@@H]2O)[C@@H](COP(=O)(O)OP(=O)(O)OP(=O)(O)OC[C@H]2O[C@@H](n3c[n+](C)c4c(=O)[nH]c(N)nc43)[C@H](O)[C@@H]2CNC(=O)c2ccccc2)O[C@H]1n1cnc2c(N)ncnc21 [Compound 309] | 112 |
| CO[C@@H]1[C@H](OP(=O)([O-])OC[C@H]2O[C@@H](n3cnc4c(=O)[nH]c(N)nc43)[C@H](O)[C@@H]2O)[C@@H](COP(=O)(O)OP(=O)(O)OP(=O)(O)OC[C@H]2O[C@@H](n3c[n+](C)c4c(=O)[nH]c(N)nc43)[C@H](O)[C@@H]2CNS(C)(=O)=O)O[C@H]1n1cnc2c(N)ncnc21 [Compound 311] | 88 |
| CO[C@@H]1[C@H](OP(=O)(O)OC[C@H]2O[C@@H](n3cnc4c(=O)[nH]c(N)nc43)[C@H](O)[C@@H]2O)[C@@H](COP(=O)(O)OP(=O)(O)OP(=O)(O)OC[C@H]2O[C@@H](n3c[n+](C)c4c(=O)[nH]c(N)nc43)[C@H](O)[C@@H]2CCNC(C)=O)O[C@H]1n1cnc2c(N)ncnc21 [Compound 319] | 102 |
| COC(=O)NC[C@H]1[C@@H](O)[C@H](n2c[n+](C)c3c(=O)[nH]c(N)nc32)O[C@@H]1COP(=O)(O)OP(=O)(O)OP(=O)(O)OC[C@H]1O[C@@H](n2cnc3c(N)ncnc32)[C@H](OC)[C@@H]1OP(=O)(O)OC[C@H]1O[C@@H](n2cnc3c(=O)[nH]c(N)nc32)[C@H](O)[C@@H]1O [Compound 323] | 114 |
| CO[C@@H]1[C@H](OP(=O)(O)OC[C@H]2O[C@@H](n3cnc4c(=O)[nH]c(N)nc43)[C@H](O)[C@@H]2O)[C@@H](COP(=O)(O)CP(=O)(O)OP(=O)(O)OC[C@H]2O[C@@H](n3c[n+](C)c4c(=O)[nH]c(N)nc43)[C@H](O)[C@@H]2CNC(C)=O)O[C@H]1n1cnc2c(N)ncnc21 [Compound 329] | 110 |
| CNC(=O)C[C@H]1[C@@H](O)[C@H](n2c[n+](C)c3c(=O)[nH]c(N)nc32)O[C@@H]1COP(=O)(O)OP(=O)(O)OP(=O)(O)OC[C@H]1O[C@@H](n2cnc3c(N)ncnc32)[C@H](OC)[C@@H]1OP(=O)(O)OC[C@H]1O[C@@H](n2ccc(=O)[nH]c2=O)[C@H](O)[C@@H]1O [Compound 394] | 107 |
| CNC(=O)CC[C@H]1[C@@H](O)[C@H](n2c[n+](C)c3c(=O)[nH]c(N)nc32)O[C@@H]1COP(=O)(O)OP(=O)(O)OP(=O)(O)OC[C@H]1O[C@@H](n2cnc3c(N)ncnc32)[C@H](OC)[C@@H]1OP(=O)(O)OC[C@H]1O[C@@H](n2cnc3c(=O)[nH]c(N)nc32)[C@H](O)[C@@H]1O [Compound 415] | 108 |
| CO[C@@H]1[C@H](OP(=O)(O)OC[C@H]2O[C@@H](n3cnc4c(=O)[nH]c(N)nc43)[C@H](O)[C@@H]2O)[C@@H](COP(=O)(O)CP(=O)(O)OP(=O)(O)OC[C@H]2O[C@@H](n3c[n+](C)c4c(=O)[nH]c(N)nc43)[C@H](O)[C@@H]2CC(=O)N(C)C)O[C@H]1n1cnc2c(N)ncnc21 [Compound 421] | 98 |
| CO[C@@H]1[C@H](OP(=O)(O)OC[C@H]2O[C@@H](n3cnc4c(=O)[nH]c(N)nc43)[C@H](O)[C@@H]2O)[C@@H](COP(=O)(O)OP(=O)(O)OP(=O)(O)OP(=O)(O)OC[C@H]2O[C@@H](n3c[n+](C)c4c(=O)[nH]c(N)nc43)[C@H](O)[C@@H]2CC(=O)N(C)C)O[C@H]1n1cnc2c(N)ncnc21 [Compound 437] | 114 |
| CO[C@@H]1[C@H](OP(=O)([O-])OC[C@H]2O[C@@H](n3cnc4c(=O)[nH]c(N)nc43)[C@H](O)[C@@H]2O)[C@@H](CSP(=O)(O)OP(=O)(O)OP(=O)(O)OC[C@H]2O[C@@H](n3c[n+](C)c4c(=O)[nH]c(N)nc43)[C@H](O)[C@@H]2CNC(C)=O)O[C@H]1n1cnc2c(N)ncnc21 [Compound 561] | 108 |
| CNC(=O)OC[C@H]1[C@@H](O)[C@H](n2c[n+](C)c3c(=O)[nH]c(N)nc32)O[C@@H]1COP(=O)(O)OP(=O)(O)OP(=O)(O)OC[C@H]1O[C@@H](n2cnc3c(N)ncnc32)[C@H](OC)[C@@H]1OP(=O)([O-])OC[C@H]1O[C@@H](n2cnc3c(=O)[nH]c(N)nc32)[C@H](O)[C@@H]1O [Compound 631] | 105 |
| CO[C@@H]1[C@H](OP(=O)([O-])OC[C@H]2O[C@@H](n3cnc4c(=O)[nH]c(N)nc43)[C@H](O)[C@@H]2O)[C@@H](COP(=O)(O)OP(=O)(O)OP(=O)(O)OC[C@H]2O[C@@H](n3c[n+](C)c4c(=O)[nH]c(N)nc43)[C@H](O)[C@@H]2CN=[N+]=[N-])O[C@H]1n1cnc2c(N)ncnc21 [Compound 635] | 118 |
| COC[C@H]1[C@@H](OC)[C@H](n2c[n+](C)c3c(=O)[nH]c(N)nc32)O[C@@H]1COP(=O)(O)OP(=O)(O)OP(=O)(O)OC[C@H]1O[C@@H](n2cnc3c(N)ncnc32)[C@H](OC)[C@@H]1OP(=O)(O)OC[C@H]1O[C@@H](n2cnc3c(=O)[nH]c(N)nc32)[C@H](O)[C@@H]1O [Compound 637] | 88 |
| CO[C@@H]1[C@H](OP(=O)(O)OC[C@H]2O[C@@H](n3cnc4c(=O)[nH]c(N)nc43)[C@H](O)[C@@H]2O)[C@@H](COP(=O)(O)OP(=O)(O)OP(=O)(O)OC[C@H]2O[C@@H](n3c[n+](C)c4c(=O)[nH]c(N)nc43)[C@H](O)[C@@H]2CNC(=O)N(C)C)O[C@H]1n1cnc2c(N)ncnc21 [Compound 639] | 94 |
| CO[C@@H]1[C@H](CNC(C)=O)[C@@H](COP(=O)(O)OP(=O)(O)OP(=O)(O)OC[C@H]2O[C@@H](n3cnc4c(N)ncnc43)[C@H](OC)[C@@H]2OP(=O)(O)OC[C@H]2O[C@@H](n3cnc4c(=O)[nH]c(N)nc43)[C@H](O)[C@@H]2O)O[C@H]1n1c[n+](C)c2c(=O)[nH]c(N)nc21 [Compound 641] | 89 |
| CCCCCCNC(=O)C[C@H]1[C@@H](O)[C@H](n2c[n+](C)c3c(=O)[nH]c(N)nc32)O[C@@H]1COP(=O)(O)OP(=O)(O)OP(=O)(O)OC[C@H]1O[C@@H](n2cnc3c(N)ncnc32)[C@H](OC)[C@@H]1OP(=O)([O-])OC[C@H]1O[C@@H](n2cnc3c(=O)[nH]c(N)nc32)[C@H](O)[C@@H]1O [Compound 643] | 121 |
| CNC(=O)C[C@H]1[C@@H](OC)[C@H](n2c[n+](C)c3c(=O)[nH]c(N)nc32)O[C@@H]1COP(=O)(O)OP(=O)(O)OP(=O)(O)OC[C@H]1O[C@@H](n2cnc3c(N)ncnc32)[C@H](OC)[C@@H]1OP(=O)(O)OC[C@H]1O[C@@H](n2cnc3c(=O)[nH]c(N)nc32)[C@H](O)[C@@H]1O [Compound 645] | 116 |

Test system: mRNA
Test: Capping efficiency of mRNA with different cap analogs by LC-MS
Assay type: biochemical
Settings: LC-MS after RNase H cleavage
Description: In a PCR machine, the annealing was performed using the following gradients: • 95° C. for 5 min; 65° C. for 2 min; 55° C. for 2 min; 40° C. for 2 min; 22° C. for 2 min • 5) Pre-treatment of magnetic beads were bound with probes.
100 μL of magnetic beads were placed on a magnetic rack and the preservation solution was removed. 100 μL of 1*BW solution was added, mixed well, and placed on the magnetic rack, and the supernatant was then removed. The washing step was repeated three times. 100 μL of wash A buffer was added, mixed well, and placed on the magnetic rack, and the supernatant was then removed. The washing step was repeated three times. 100 μL of wash B buffer was added, mixed well, and placed on the magnetic rack, and the supernatant was then removed. The washing step was repeated three times. After 120 μL of sample was added, the sample and the magnetic beads solution were incubated for 30 min at room temperature, and they were gently mixed well while incubation. • 6) mRNA was spliced to obtain 5′ end mRNA single stranded sequence and binding with the probe.
20 μL of RNase H (5 U/mL) was added, incubated for 3 hours at 37° C., mixed once every half an hour. 100 μL of 1*BW solution was added, mixed well, and placed on the magnetic rack, and then the supernatant was removed. The washing step was repeated three times. Subsequently, 100 μL of deionized aqueous solution was added, mixed well, and placed on the magnetic rack, and the supernatant was then removed. The washing step was repeated three times. 100 μL of 75% methanol at 80° C. was added, and the mixture was incubated at 80° C. on a heater plate for 3 min, and placed on the magnetic rack, and the supernatant was then pipetted. The sample was dried using an evaporative centrifuge at room temperature for 45 min to 10 μL, and then resuspended in 50 μL of 100 μM EDTA solution in 1% MeOH for LC-MS analysis.
The capping efficiencies of mRNA with different cap analogs were determined by LC-MS, and some compounds of the results were shown in Table 4.

| Compound | Capping efficiency |
| --- | --- |
| CO[C@@H]1[C@H](OP(=O)([O-])OC[C@H]2O[C@@H](n3cnc4c(=O)[nH]c(N)nc43)[C@H](O)[C@@H]2O)[C@@H](COP(=O)(O)OP(=O)(O)OP(=O)(O)OC[C@H]2OC(n3c[n+](C)c4c(=O)[nH]c(N)nc43)[C@H](O)[C@@H]2CC(=O)N(C)C)O[C@H]1n1cnc2c(N)ncnc21 (stereo partly shown) [Compound 4] | A (100% > A ≥ 95%) |
| CO[C@@H]1[C@H](OP(=O)([O-])OC[C@H]2O[C@@H](n3cnc4c(=O)[nH]c(N)nc43)[C@H](O)[C@@H]2O)[C@@H](COP(=O)(O)OP(=O)(O)OP(=O)(O)OC[C@H]2O[C@@H](n3c[n+](C)c4c(=O)[nH]c(N)nc43)[C@H](O)[C@@H]2CNC(C)=O)O[C@H]1n1cnc2c(N)ncnc21 [Compound 6] | A (100% > A ≥ 95%) |

— patent US12060385B2, “Compounds for RNA capping and uses thereof” (GUANGZHOU HENOVCOM BIOSCIENCE CO., LTD., priority 2022, dated 2024)
